The target in test [1] is T1, human GPR4 (Homo sapiens (Human), UniProt P46093). Kind of test: Human GPR4 binding assay with additional human serum albumin (4% HSA). Particulars: binding assay with 4% HSA. The procedure: (§1) Cells were grown in T175 flasks to a density of about 1×10^6 cells/mL in growth medium. The cells were harvested by centrifugation (3000 rpm for 30 minutes at 4° C.) and the pellet resuspended in ice cold buffer A (20 mM HEPES pH 7.8, 10 mM EDTA, 100 mM NaCl, 1 tab/40 mL protease inhibitor complete). […] The homogenate was centrifuged at 18000 rpm for 50 min at 4° C. and the membrane protein pellet resuspended in cold buffer A using the Polytron (2×20 seconds). The protein concentration is determined using the Bio Rad Protein Assay and human IgG as standard. The volume of the membrane protein suspension is adjusted to a final concentration of about 2 mg protein/mL. The suspension is then once again homogenized (Polytron) on ice at 25000 rpm for 20 seconds before being aliquoted and stored at −80° C.
T1 sequence (P46093 whole entry): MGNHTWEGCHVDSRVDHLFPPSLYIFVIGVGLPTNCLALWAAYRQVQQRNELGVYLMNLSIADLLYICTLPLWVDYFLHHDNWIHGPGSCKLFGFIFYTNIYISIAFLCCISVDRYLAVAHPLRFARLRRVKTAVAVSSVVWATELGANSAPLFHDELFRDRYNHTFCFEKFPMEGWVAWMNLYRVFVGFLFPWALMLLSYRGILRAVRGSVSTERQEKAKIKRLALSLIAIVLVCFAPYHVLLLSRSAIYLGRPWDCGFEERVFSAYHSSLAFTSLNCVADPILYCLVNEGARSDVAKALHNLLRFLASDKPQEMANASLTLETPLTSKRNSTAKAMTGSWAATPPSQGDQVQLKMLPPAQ
(§2) Radio Ligand Binding Assay: Serial dilutions of compounds (stock in 10 mM DMSO) are prepared by first diluting the compounds in DMSO followed by a 1:50 dilution into assay buffer (10 mM HEPES, pH 8.0, 100 mM NaCl, 5 mM MgCl2, 1 mM CaCl2, 0.5% fatty acid-free BSA, 0.05% Tween-20). […] The desired amount of membranes (20 μg/well) is diluted with assay buffer. […] 100 μL of the membrane-suspension is added and the plate stirred for 60 minutes. […] The filter plate is washed 5 times with ice-cold wash buffer, dried and sealed at the bottom. Then 20 μL of Microscint 40 is added into each well and the top of the plate is sealed. Finally the plate is counted for 2 min/well in a TopCount NXT instrument (Packard Instruments). The data are analyzed using the GraphPad Prism™ software.
In a similar manner, a binding assay with additional human serum albumin (4% HSA) has been established.

Test [2] concerns the target T1, human GPR4. Nature of the test: Cell-based assay for human GPR4 activity (pH-induced cAMP formation, HTRF, HeLa cells). As to conditions: HeLa cells stably expressing human GPR4, pH-induced cAMP. The method, then: b) Cell-Based Assay for Human GPR4 Activity
(§3) HeLa cells stably expressing human GPR4 were established by transfecting the cells with a construct containing the human GPR4 coding sequence. The cells were grown in Dulbecco's Modified Eagle Medium (DMEM)/HAM's tissue culture medium F12 (HAM's F12) supplemented with 10% fetal calf serum (FCS), 100 u/ml penicillin, 100 μg/ml streptomycin and 400 μg/ml G418 and 10 mM Hepes pH 8.0. pH-induced formation of cAMP was determined using the homogeneous time resolved fluorescence (HTRF) technology as provided by CisBio Inc. The cells were seeded in 384-well plates and cultured for 24 hours at 37° C., 5% CO2 before performing the assay. Medium was removed and 10 μl buffer A (Hepes buffered saline (HBS), 10 mM Hepes, pH 8, 2 mM 3-Isobutyl-1-methylxanthin (IBMX)) was added. For compound testing, buffer A with 2× concentrated compounds was used. Cells were incubated for 15 min at room temperature. 10 μl buffer B (HBS, 30 mM Hepes, specific pH) was added to reach the appropriate final pH for stimulation (see below) and incubation was continued for 15 min at room temperature. […] HBS: 130 mM NaCl, 0.9 mM NaH2 PO4, 5.4 mM KCl, 0.8 mM MgSO4, CaCl2 1.8 mM, 25 mM glucose, 10-30 mM Hepes. Adjustment of HBS buffers:
(§4) Compounds were diluted from fresh stock solutions at 10 mM in DMSO to 2 mM and then used for serial dilutions in DMSO.
For orientation: cAMP levels reflect the balance of adenylyl cyclase and phosphodiesterase activity.

In another test the target is mouse GPR4 (Mus musculus (Mouse), UniProt Q8BUD0). Kind of test: Mouse GPR4 cAMP assay. It counts as cell-based. The method, then:
as §3, §4
(§5) In a similar manner, assays for the mouse (m) and rat (r) GPR4 receptors have been established.

Another test deals with rat GPR4 (Rattus norvegicus (Rat), UniProt Q4KLH9). Nature of the test: Rat GPR4 cAMP assay. It counts as cell-based. As to conditions: read-out: r cAMP IC50. The procedure:
as §3, §4, §5

In a further test the target is Human H3 (Homo sapiens (Human), UniProt Q9Y5N1). Kind of test: Human H3 binding assay (SPA, [3H]-R-alpha-Methylhistamine). As to conditions: 3 nM [3H]-R-alpha-Methylhistamine. The procedure:
c) Human H3 Binding Assay
The Scintillation Proximity Binding Assay (SPA) assay was performed in a final volume of 50 μL per well in a 384-well polystyrene plate.
The final concentration of the radioligand was 3 nM. • 20 μL of a beads (PVT-WGA type A) and membranes mixed suspension in assay buffer, in order to get a final concentration of 10 μg/well of membranes and 200 μg/well of beads. As an example, 1471 μL membranes (Conc.: 5.1 mg/mL) and 1500 μL of bead suspension (Conc.: 100 mg/mL) are diluted to a final volume of 15 mL of assay buffer.
The plates were sealed and shaken at room temperature, then allowed to stand at room temperature for at least 1 hour. The plates were counted using a Perkin Elmer TopCount reader, each well being counted for 1 minute.

Test [3] has as its target T1, human GPR4. Nature of the test: Human GPR4 binding assay ([3H]4 radioligand, membranes of 300.19 cells expressing human GPR4). As to conditions: radioligand [3H]4 (example 39), membranes of 300.19 cells expressing human GPR4. The procedure: a) Human GPR4 Binding Assay
as §1, §2

A further test concerns CFA-induced hyperalgesia. Nature of the test: Established rat hyperalgesia model (CFA). The class given is in vivo. As to conditions: gavage. The method, then: f) Established Rat Hyperalgesia Model
Naïve withdrawal thresholds of both hind paws were determined by using an increasing pressure stimulus placed onto the dorsal surface of each paw using an analgesymeter. Delayed inflammatory pain was then induced by intra-plantar injection of 25 μl of complete Freund's adjuvant (CFA) into one hindpaw with the contralateral paw acting as the control. […] One hour later, paw withdrawal thresholds were re-measured on both the ipsilateral (CFA-injected) and contralateral (uninjected) paw; measurements were repeated at 3 hrs and 6 hrs post dosing. The reversal of hyperalgesia was calculated using the following formula: Reversal (%)=100×(postdose ipsilateral threshold−predose ipsilateral threshold) (naïve ipsilateral threshold−predose ipsilateral threshold).

Counter-ions that a name gives are not always drawn.

Broadly, the IC50 is the concentration that gives 50% inhibition.

Human H3, sequence (Q9Y5N1 whole entry): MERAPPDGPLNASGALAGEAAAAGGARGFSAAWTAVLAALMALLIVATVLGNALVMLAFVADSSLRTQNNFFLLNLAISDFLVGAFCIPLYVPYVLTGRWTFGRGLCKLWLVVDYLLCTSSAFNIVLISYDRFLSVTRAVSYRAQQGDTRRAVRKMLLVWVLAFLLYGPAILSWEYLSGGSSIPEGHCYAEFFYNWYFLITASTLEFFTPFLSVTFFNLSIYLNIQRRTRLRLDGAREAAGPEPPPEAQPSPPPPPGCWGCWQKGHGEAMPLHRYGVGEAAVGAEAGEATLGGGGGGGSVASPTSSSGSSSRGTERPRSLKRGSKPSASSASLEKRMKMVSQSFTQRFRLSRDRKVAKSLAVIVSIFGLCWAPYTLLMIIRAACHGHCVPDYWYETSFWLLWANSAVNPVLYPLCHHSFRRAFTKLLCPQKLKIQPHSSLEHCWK
mouse GPR4, sequence (Q8BUD0 whole entry): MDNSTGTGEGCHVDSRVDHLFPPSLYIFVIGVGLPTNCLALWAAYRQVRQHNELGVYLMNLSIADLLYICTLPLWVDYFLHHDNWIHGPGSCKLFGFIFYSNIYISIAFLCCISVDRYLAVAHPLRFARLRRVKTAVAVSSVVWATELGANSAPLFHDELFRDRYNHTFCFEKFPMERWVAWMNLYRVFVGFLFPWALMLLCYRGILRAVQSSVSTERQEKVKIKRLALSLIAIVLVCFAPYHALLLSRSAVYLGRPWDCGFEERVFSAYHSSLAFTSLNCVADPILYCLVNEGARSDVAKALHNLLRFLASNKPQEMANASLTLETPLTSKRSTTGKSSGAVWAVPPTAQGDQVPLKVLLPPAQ
rat GPR4, sequence (Q4KLH9 whole entry): as the sequence (Q8BUD0 whole entry) above, with G8W, H51R, S339T counted along it

Take `CCc1nn2c(C)cc(C)nc2c1Cc1ccc(OC[C@H]2CC[C@@H](NC(=O)[C@H]3NCC[C@H]3O)CC2)cc1` [Example 24, (2S,3R)-3-Hydroxy-pyrrolidine-2-carboxylic acid {4-[4-(2-ethyl-5,7-dimethyl-pyrazolo[1,5-a]pyrimidin-3-ylmethyl)-phenoxymethyl]-cyclohexyl}-amide]: the IC50 is 63 nM at human GPR4 [1]; 70 nM at human GPR4 [2]; 365 nM against mouse GPR4; 792 nM on rat GPR4; over 30000 nM on Human H3.
As for `CCc1nn2c(C)cc(C)nc2c1Cc1ccc(/C=C/CN2CCN(C(=O)CN)CC2)cc1` [Example 11, 2-Amino-1-(4-{(E)-3-[4-(2-ethyl-5,7-dimethyl-pyrazolo[1,5-a]pyrimidin-3-ylmethyl)-phenyl]-allyl}-piperazin-1-yl)-ethanone dihydrochloride], the 50% inhibitory concentration (IC50) on human GPR4 [3] is 38 nM; at human GPR4 [2], 46 nM; on mouse GPR4 it was 499 nM; on rat GPR4, 2790 nM; at Human H3 it was over 30000 nM.
`O=C(O)Cc1ccccc1Nc1c(Cl)cccc1Cl` [diclofenac, reference compound]: the “% reversal of hyperalgesia” value in the test with CFA-induced hyperalgesia (30 mg/kg, 1 h) stood at 58%; in the test on CFA-induced hyperalgesia (30 mg/kg, 3 h), 60%; in the test with CFA-induced hyperalgesia (30 mg/kg, 6 h) it was 30%.
With `CCc1nn2c(C)cc(C)nc2c1Cc1ccc(-n2cc(CN3CCC(N)CC3)cn2)cc1` [Example 30, 1-{1-[4-(2-Ethyl-5,7-dimethyl-pyrazolo[1,5-a]pyrimidin-3-ylmethyl)-phenyl]-1H-pyrazol-4-ylmethyl}-piperidin-4-ylamine], the IC50 is 26 nM on human GPR4 [3]; 29 nM on human GPR4 [2]; 384 nM at mouse GPR4; 497 nM on rat GPR4; over 30000 nM on Human H3.
With `CCc1nn2c(C)cc(C)nc2c1Cc1ccc(-n2cc(CN3CCNCC3)nn2)cc1` [Example 33, 2-Ethyl-5,7-dimethyl-3-[4-(4-piperazin-1-ylmethyl-[1,2,3]triazol-1-yl)-benzyl]-pyrazolo[1,5-a]pyrimidine], the IC50 at human GPR4 [3] is 38 nM; on human GPR4 [2], 31 nM; against mouse GPR4 it was 872 nM; on rat GPR4, 616 nM; at Human H3, over 10000 nM.
With `CCc1nc2c(C)cc(C)nc2n1Cc1ccc(/C=C/CN2CCN(C(C)C)CC2)cc1` [Example 40, 2-Ethyl-3-{4-[(E)-3-(4-isopropyl-piperazin-1-yl)-propenyl]-benzyl}-5,7-dimethyl-3H-imidazo[4,5-b]pyridine, reference compound], the “% reversal of hyperalgesia” value in the test with CFA-induced hyperalgesia (3 mg/kg, 1 h) is recorded as 23%; in the test with CFA-induced hyperalgesia (3 mg/kg, 3 h), 11%; in the test on CFA-induced hyperalgesia (3 mg/kg, 6 h) it was 0%; in the test on CFA-induced hyperalgesia (10 mg/kg, 1 h) it was 48%; with CFA-induced hyperalgesia (10 mg/kg, 3 h) it was 40%; in the test on CFA-induced hyperalgesia (10 mg/kg, 6 h), 0%. Besides, the “% reversal of hyperalgesia” value stood at 55% in the test with CFA-induced hyperalgesia (30 mg/kg, 1 h); 45% in the test with CFA-induced hyperalgesia (30 mg/kg, 3 h); 8% in the test on CFA-induced hyperalgesia (30 mg/kg, 6 h).
With `CCc1nn2c(C)cc(C)nc2c1Cc1ccc(-n2cc(CN3CCN[C@@H](CO)C3)cn2)cc1` [Example 32, ((R)-4-{1-[4-(2-Ethyl-5,7-dimethyl-pyrazolo[1,5-a]pyrimidin-3-ylmethyl)-phenyl]-1H-pyrazol-4-ylmethyl}-piperazin-2-yl)-methanol], the IC50 on human GPR4 [2] was 61 nM; at mouse GPR4, 255 nM; on rat GPR4 it was 1330 nM; on Human H3, over 30000 nM.
Turning to `CCc1nn2c(C)cc(C)nc2c1Cc1ccc(-c2nnc(C3CCN(C(=O)CNC)CC3)o2)cc1` [Example 37, 1-(4-{5-[4-(2-Ethyl-5,7-dimethyl-pyrazolo[1,5-a]pyrimidin-3-ylmethyl)-phenyl]-[1,3,4]oxadiazol-2-yl}-piperidin-1-yl)-2-methylamino-ethanone], the IC50 against human GPR4 [2] was 40 nM.
`CCc1nn2c(C)cc(C)nc2c1Cc1ccc(OCC2CCNCC2)cc1` [Example 21, 2-Ethyl-5,7-dimethyl-3-[4-(piperidin-4-ylmethoxy)-benzyl]-pyrazolo[1,5-a]pyrimidine hydrochloride]: the half-maximal inhibitory concentration (IC50) on human GPR4 [2] came to 12 nM; on mouse GPR4, 96 nM; on rat GPR4 it was 489 nM; on Human H3 it was 25000 nM.
In the same order, the values of `CCc1nn2c(C)cc(C)nc2c1Cc1ccc(C(=O)NCC2CCNCC2)cc1` [Example 20, 4-(2-Ethyl-5,7-dimethyl-pyrazolo[1,5-a]pyrimidin-3-ylmethyl)-N-piperidin-4-ylmethyl-benzamide] are 79 nM, 366 nM, 1500 nM and over 30000 nM.
`CCc1nn2c(C)cc(C)nc2c1Cc1ccc(/C=C/CC2(O)CCN(C[C@@H](O)CO)CC2)cc1` [Example 6, (R)-3-(4-{(E)-3-[4-(2-Ethyl-5,7-dimethyl-pyrazolo[1,5-a]pyrimidin-3-ylmethyl)-phenyl]-allyl}-4-hydroxy-piperidin-1-yl)-propane-1,2-diol]: the IC50 was 24 nM at human GPR4 [3], 19 nM at human GPR4 [2], 128 nM at mouse GPR4 and 491 nM at rat GPR4.
As for `CCc1nn2c(C)cc(C)nc2c1Cc1ccc(OCC2CCN(C(=O)[C@H]3NCC[C@H]3O)CC2)cc1` [Example 22, {4-[4-(2-Ethyl-5,7-dimethyl-pyrazolo[1,5-a]pyrimidin-3-ylmethyl)-phenoxymethyl]-piperidin-1-yl}-((2S,3R)-3-hydroxy-pyrrolidin-2-yl)-methanone], the half-maximal inhibitory concentration (IC50) on human GPR4 [3] is 19 nM; at human GPR4 [1], 12 nM; at mouse GPR4, 90 nM; on rat GPR4 it was 202 nM; at Human H3, over 30000 nM.
In the case of `CCc1nn2c(C)cc(C)nc2c1Cc1ccc(/C=C/CN2CCC(c3nnnn3C)CC2)cc1` [Example 12, 2-Ethyl-5,7-dimethyl-3-(4-{(E)-3-[4-(1-methyl-1H-tetrazol-5-yl)-piperidin-1-yl]-propenyl}-benzyl)-pyrazolo[1,5-a]pyrimidine hydrochloride], the 50% inhibitory concentration (IC50) is 33 nM on human GPR4 [3]; 27 nM against human GPR4 [2]; 233 nM on mouse GPR4; 181 nM on rat GPR4; over 30000 nM at Human H3.
